Assay results from patent publication US9302999B2, “Substituted triazoles as herbicides” (E. I. DU PONT DE NEMOURS AND COMPANY, priority 2012, dated 2016).

Experiments:
Type in all cases: in vivo
[1] = tested on: surinam grass (Brachiaria decumbens); assay: Test C pre-/postemergence: surinam grass
Summary of the method: (§1)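 Preemergence on seeds in loam/sand, postemergence on 2–18 cm (1–4-leaf) plants in peat-based medium; compounds in non-phytotoxic solvent with surfactant. After 13–15 days in greenhouse, visual rating versus controls, 0 (no effect) to 100 (complete control).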

[2] = tested on: barley (winter barley, Hordeum vulgare); assay: Test C postemergence: barley
Summary of the method: (§2)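 Greenhouse pot test; foliar postemergence treatment at 1- to 4-leaf stage. Rated visually at 13 to 15 days on a 0–100 control scale relative to untreated plants.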

[3] = tested on: cocklebur (common cocklebur, Xanthium strumarium); assay: Test C pre-/postemergence: cocklebur
Summary of the method: as §1

[4] = tested on: common (oilseed) sunflower (Helianthus annuus); assay: Test C pre-/postemergence: sunflower; conditions: Preemergence
Summary of the method: as §1

[5] = tested on: bermudagrass (Cynodon dactylon); assay: Test C pre-/postemergence: bermudagrass
Summary of the method: as §1

[6] = tested on: woolly cupgrass (Eriochloa villosa); assay: Test C pre-/postemergence: woolly cupgrass
Summary of the method: as §1

[7] = tested on: windgrass (Apera spica-venti); assay: Test C postemergence: windgrass
Summary of the method: as §2

[8] = tested on: foxtail, green (green foxtail, Setaria viridis); assay: Test C pre-/postemergence: foxtail, green
Summary of the method: as §1

[9] = tested on: canarygrass (Phalaris minor); assay: Test C postemergence: canarygrass
Summary of the method: as §2

[10] = tested on: goosegrass (Eleusine indica); assay: Test C pre-/postemergence: goosegrass
Summary of the method: as §1

[11] = Postemergence, 31 g ai/ha, scale 0 to 100 (0 no effect, 100 complete control)
[12] = Postemergence, 62 g ai/ha, scale 0 to 100 (0 no effect, 100 complete control)
[13] = Postemergence, 125 g ai/ha, scale 0 to 100, 0 no effect, 100 complete control
[14] = Postemergence, 250 g ai/ha, scale 0 to 100
[15] = Preemergence, 31 g ai/ha, scale of 0 to 100, 0 is no effect, 100 is complete control
[16] = Preemergence, 62 g ai/ha, scale of 0 to 100, 0 is no effect, 100 is complete control
[17] = Preemergence, 125 g ai/ha, scale 0 to 100, 0 no effect, 100 complete control
[18] = Preemergence, 250 g ai/ha, scale 0 to 100, 0 no effect, 100 complete control
[19] = 31 g ai/ha, scale 0 to 100 (0 no effect, 100 complete control)
[20] = 62 g ai/ha, scale 0 to 100 (0 no effect, 100 complete control)
[21] = 125 g ai/ha, scale 0 to 100, 0 no effect, 100 complete control
[22] = Preemergence, 62 g ai/ha, scale 0 to 100, 0 no effect, 100 complete control
[23] = 31 g ai/ha, scale of 0 to 100, 0 is no effect, 100 is complete control
[24] = 62 g ai/ha, scale of 0 to 100, 0 is no effect, 100 is complete control
[25] = 250 g ai/ha, scale 0 to 100, 0 no effect, 100 complete control

Cc1nn(-c2ccc(C(F)(F)F)cc2)nc1Oc1ccnc(C(F)(F)F)c1 [Compound 120]
85: Plant response rating, Foxtail, Green [8, 12]
10: Plant response rating, Bermudagrass [5, 14] | Plant response rating, Cupgrass, Woolly [6, 11] | Plant response rating, Cupgrass, Woolly [6, 12] | Plant response rating, Goosegrass [10, 13]
25: Plant response rating, Canarygrass [9, 19]
95: Plant response rating, Surinam Grass [1, 16] | Plant response rating, Cupgrass, Woolly [6, 16]
0: Plant response rating, Cocklebur [3, 15] | Plant response rating, Cocklebur [3, 22] | Plant response rating, Sunflower [4, 23] | Plant response rating, Sunflower [4, 24] | Plant response rating, Sunflower [4, 21]
65: Plant response rating, Surinam Grass [1, 15] | Plant response rating, Cocklebur [3, 13] | Plant response rating, Cocklebur [3, 14]
90: Plant response rating, Cupgrass, Woolly [6, 15] | Plant response rating, Windgrass [7, 21] | Plant response rating, Foxtail, Green [8, 15] | Plant response rating, Foxtail, Green [8, 16] | Plant response rating, Foxtail, Green [8, 17] | Plant response rating, Foxtail, Green [8, 18] | Plant response rating, Canarygrass ([9]; 250 g ai/ha, scale 0 to 100)
45: Plant response rating, Cocklebur [3, 11] | Plant response rating, Cupgrass, Woolly [6, 14] | Plant response rating, Goosegrass [10, 14]
100: Plant response rating, Surinam Grass [1, 18] | Plant response rating, Bermudagrass [5, 18] | Plant response rating, Foxtail, Green [8, 13] | Plant response rating, Foxtail, Green [8, 14]
50: Plant response rating, Cocklebur [3, 12] | Plant response rating, Windgrass [7, 19]
20: Plant response rating, Surinam Grass [1, 13] | Plant response rating, Surinam Grass [1, 14] | Plant response rating, Barley [2, 19]
55: Plant response rating, Barley ([2]; 250 g ai/ha, scale 0 to 100) | Plant response rating, Windgrass [7, 20]
40: Plant response rating, Barley [2, 21] | Plant response rating, Cupgrass, Woolly [6, 13]
30: Plant response rating, Barley [2, 20]
98: Plant response rating, Surinam Grass [1, 17] | Plant response rating, Bermudagrass [5, 15] | Plant response rating, Bermudagrass [5, 22] | Plant response rating, Bermudagrass [5, 17] | Plant response rating, Cupgrass, Woolly [6, 17] | Plant response rating, Cupgrass, Woolly [6, 18] | Plant response rating, Goosegrass [10, 15] | Plant response rating, Goosegrass [10, 16] | Plant response rating, Goosegrass [10, 17] | Plant response rating, Goosegrass [10, 18]
5: Plant response rating, Surinam Grass [1, 11] | Plant response rating, Surinam Grass [1, 12] | Plant response rating, Cocklebur [3, 18] | Plant response rating, Sunflower [4, 25] | Plant response rating, Bermudagrass [5, 11] | Plant response rating, Bermudagrass [5, 12] | Plant response rating, Bermudagrass [5, 13] | Plant response rating, Goosegrass [10, 11] | Plant response rating, Goosegrass [10, 12]
15: Plant response rating, Foxtail, Green [8, 11]
60: Plant response rating, Canarygrass [9, 21]
35: Plant response rating, Canarygrass [9, 20]

Cc1nn(-c2ccc(C(F)(F)F)cn2)nc1Oc1ccnc(C(F)(F)F)c1 [Compound 23]
20: Plant response rating, Barley [2, 21]
60: Plant response rating, Surinam Grass [1, 16]
5: Plant response rating, Surinam Grass [1, 11] | Plant response rating, Barley [2, 19] | Plant response rating, Cocklebur [3, 17] | Plant response rating, Cocklebur [3, 18] | Plant response rating, Bermudagrass [5, 11] | Plant response rating, Canarygrass [9, 19]
50: Plant response rating, Cocklebur [3, 14] | Plant response rating, Cupgrass, Woolly [6, 14] | Plant response rating, Foxtail, Green [8, 14]
30: Plant response rating, Barley ([2]; 250 g ai/ha, scale 0 to 100) | Plant response rating, Bermudagrass [5, 14] | Plant response rating, Foxtail, Green [8, 12] | Plant response rating, Goosegrass [10, 14]
25: Plant response rating, Cocklebur [3, 11] | Plant response rating, Cocklebur [3, 12]
100: Plant response rating, Surinam Grass [1, 17] | Plant response rating, Surinam Grass [1, 18] | Plant response rating, Bermudagrass [5, 15] | Plant response rating, Bermudagrass [5, 22] | Plant response rating, Bermudagrass [5, 17] | Plant response rating, Bermudagrass [5, 18] | Plant response rating, Cupgrass, Woolly [6, 16] | Plant response rating, Cupgrass, Woolly [6, 17] | Plant response rating, Cupgrass, Woolly [6, 18] | Plant response rating, Foxtail, Green [8, 15] | Plant response rating, Foxtail, Green [8, 16] | Plant response rating, Foxtail, Green [8, 17] | Plant response rating, Foxtail, Green [8, 18] | Plant response rating, Goosegrass [10, 16] | Plant response rating, Goosegrass [10, 17] | Plant response rating, Goosegrass [10, 18]
0: Plant response rating, Cocklebur [3, 15] | Plant response rating, Cocklebur [3, 22] | Plant response rating, Sunflower [4, 23] | Plant response rating, Sunflower [4, 24] | Plant response rating, Sunflower [4, 21] | Plant response rating, Sunflower [4, 25]
10: Plant response rating, Surinam Grass [1, 12] | Plant response rating, Surinam Grass [1, 13] | Plant response rating, Bermudagrass [5, 12] | Plant response rating, Cupgrass, Woolly [6, 11] | Plant response rating, Cupgrass, Woolly [6, 12] | Plant response rating, Windgrass [7, 19] | Plant response rating, Canarygrass [9, 20] | Plant response rating, Goosegrass [10, 11] | Plant response rating, Goosegrass [10, 12]
45: Plant response rating, Foxtail, Green [8, 13]
40: Plant response rating, Cocklebur [3, 13]
15: Plant response rating, Surinam Grass [1, 14] | Plant response rating, Surinam Grass [1, 15] | Plant response rating, Barley [2, 20] | Plant response rating, Bermudagrass [5, 13] | Plant response rating, Cupgrass, Woolly [6, 13] | Plant response rating, Windgrass [7, 20] | Plant response rating, Windgrass [7, 21] | Plant response rating, Windgrass ([7]; 250 g ai/ha, scale 0 to 100) | Plant response rating, Canarygrass [9, 21] | Plant response rating, Canarygrass ([9]; 250 g ai/ha, scale 0 to 100) | Plant response rating, Goosegrass [10, 13]
95: Plant response rating, Cupgrass, Woolly [6, 15] | Plant response rating, Goosegrass [10, 15]
